Values joined by “and” are separate entries in the source; they are usually repeats but may differ in a detail not shown here. Equal values may be shown once.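 Where inhibition never reached the appropriate level, the endpoint shown equals the highest concentration tested. Otherwise, values were interpolated linearly from a five-concentration, 48-hour dose response in 96-well plates. GI50: concentration for 50% inhibition of growth. Definition used: TGI = concentration required for complete inhibition of growth.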
Assays:
Experiment in all cases: inhibition of tumour cell growth, NCI panel, 48 h
HCT-15 colon = test system: HCT-15 colon
ACHN renal = test system: ACHN renal
SK-MEL-28 melanoma = test system: SK-MEL-28 melanoma
UACC-62 melanoma = test system: UACC-62 melanoma
HOP-92 NSCLC = test system: HOP-92 NSCLC
MALME-3M melanoma = test system: MALME-3M melanoma
U251 CNS = test system: U251 CNS
SK-MEL-5 melanoma = test system: SK-MEL-5 melanoma
UACC-257 melanoma = test system: UACC-257 melanoma
K-562 leukemia = test system: K-562 leukemia

Compound | TGI (HCT-15 colon) | TGI (ACHN renal) | TGI (SK-MEL-28 melanoma) | TGI (UACC-62 melanoma) | TGI (HOP-92 NSCLC) | TGI (MALME-3M melanoma) | TGI (U251 CNS) | TGI (SK-MEL-5 melanoma) | TGI (UACC-257 melanoma) | TGI (K-562 leukemia) | GI50 (HCT-15 colon) | GI50 (ACHN renal) | GI50 (SK-MEL-28 melanoma) | GI50 (UACC-62 melanoma) | GI50 (HOP-92 NSCLC) | GI50 (MALME-3M melanoma) | GI50 (K-562 leukemia) | GI50 (SK-MEL-5 melanoma) | GI50 (U251 CNS) | GI50 (UACC-257 melanoma)
Nc1nc(N)c2ncn(-c3ccc(Cl)c(Cl)c3)c2n1 | > 100 µM | > 100 µM | > 100 µM | 43 µM | > 100 µM | 49.2 µM | > 100 µM | > 100 µM | 57.9 µM |  |  |  |  |  |  |  |  |  |  | 
C=C1C(=O)OC2/C=C(\C)C(=O)CC3OC(C)(C)OC3(C)CC(OC(=O)/C(C)=C/C)C12 (stereo not drawn) | 19.8 µM | 16.6 µM | 86.5 µM | 27.8 µM | 38.1 µM | 28 µM | > 75.2 µM | > 91.2 µM | 31.5 µM | > 60.9 µM |  |  |  |  |  |  |  |  |  | 
C=C(C)[C@@H]1CC[C@]2(C(=O)Nc3ccccn3)CC[C@]3(C)[C@H](CC[C@@H]4[C@@]5(C)CCCNC(C)(C)[C@@H]5CC[C@]43C)[C@@H]12 | 3.09 µM | 4.64 µM | 3.13 µM | 3.12 µM | 7.64 µM | 2.84 µM |  |  |  | 4.78 µM | 1.61 µM | 2.08 µM | 1.69 µM | 1.64 µM | 2.06 µM | 1.44 µM | 1.45 µM |  |  | 
O=S(=O)(O)c1cc(N=Nc2cc(S(=O)(=O)O)c3ccccc3c2O)ccc1/C=C/c1ccc(N=Nc2cc(S(=O)(=O)O)c3ccccc3c2O)cc1S(=O)(=O)O | > 727 µM | > 755 µM | > 1000 µM | > 628 µM | > 463 µM | > 494 µM | > 1000 µM | 239 µM | > 1000 µM | > 67.1 µM and 78.1 µM | 186 µM |  |  |  | > 262 µM |  |  |  |  | 
c1ccc(-n2cnnc2-c2nsc3ccccc23)cc1 | > 100 µM | > 100 µM | > 100 µM | > 100 µM | > 100 µM |  | > 100 µM | > 100 µM | > 100 µM | > 100 µM |  |  |  |  |  |  |  |  |  | 
C=C1CC23CCC4C(C)(C(=O)O)CCCC4(C)C2CCC1C3 (stereo not drawn) | > 100 µM | > 100 µM | > 100 µM | > 100 µM | 94.3 µM | > 100 µM | > 100 µM |  | > 100 µM | > 100 µM |  |  |  |  |  |  |  |  |  | 
O=[N+]([O-])c1ccc(/C=N\Nc2ccc([N+](=O)[O-])cn2)cc1 | > 100 µM | > 100 µM | > 100 µM | > 100 µM | > 100 µM | > 100 µM | > 100 µM | > 100 µM | > 100 µM | > 100 µM |  |  |  |  |  |  |  |  |  | 
CCN(CC)C(=S)SC(=S)N(CC)CC | > 100 µM | > 100 µM | > 100 µM | > 93.1 µM | > 87.3 µM | > 58.4 µM | > 100 µM | > 46.5 µM | > 100 µM | > 100 µM |  |  |  |  |  |  |  |  |  | 
N=C(N)c1ccc(-c2ccc(-c3cncc4ccccc34)s2)cc1F | 3.64 µM |  | 3.41 µM |  |  | 3.51 µM |  | 3.26 µM |  |  | 1.75 µM |  | 1.75 µM |  |  | 1.74 µM |  | 1.75 µM |  | 
O=C(/C=c1\oc(=O)/c(=C/C(=O)c2ccc(Cl)cc2)oc1=O)c1ccc(Cl)cc1 | > 100 µM | > 100 µM | > 100 µM | > 100 µM | > 100 µM | > 100 µM | > 100 µM | > 100 µM | > 100 µM | > 100 µM |  |  |  |  |  |  |  |  |  | 
CC(C)=CCc1c(O)ccc2c1OC1c3ccc(O)c(CC=C(C)C)c3OCC21 (stereo not drawn) | 18.1 µM |  | 28.7 µM | 18.7 µM | > 100 µM | 33.6 µM | 21.3 µM | 17.8 µM | 29 µM | 25.3 µM |  |  |  |  |  |  |  |  |  | 
C=C(C)C(=O)OC1C(C(C)CCCO)=C(CO)CC2OC(=O)C(=C)C21 (stereo not drawn) | 26.9 µM | 79.8 µM | 49.1 µM | 31.9 µM | 44.2 µM | 17.8 µM | 45.3 µM | 28.5 µM | 39.1 µM | 49.4 µM |  |  |  |  |  |  |  |  |  | 
COc1cc(C(C)(C)C)cc(OC)c1C(O)(c1c(OC)cc(C(C)(C)C)cc1OC)c1c(OC)cc(C(C)(C)C)cc1OC |  | 0.987 µM |  |  |  | 0.683 µM | 1.23 µM | 0.552 µM | 0.702 µM |  |  | 0.284 µM |  |  |  | 0.234 µM |  | 0.236 µM | 0.0636 µM | 0.268 µM
C=C(C)C1CC2=C(O1)C(=O)c1ccccc1C2=O (stereo not drawn) | 33.2 µM |  | 34.2 µM | 30.4 µM | 30.8 µM |  | 30.2 µM | 28.1 µM | 26.2 µM | 42.1 µM |  |  |  |  |  |  |  |  |  | 

Reference: PubChem BioAssay (NCI)
